Source: patent publication US7408025B2, “Lipopeptides as antibacterial agents” (priority 1999, dated 2008)

Assay: Acute toxicity monitoring in non-inoculated mice
Format: in vivo, female CD-1 mice
Details: not inoculated; 10 mg/kg, s.c. × 2; acute toxicity group
Experimental: The test compound was dissolved in 10.0 ml of 50 mM phosphate buffer to give a solution of 1 mg/ml (pH=7.0). This solution was serially diluted with vehicle by 4-fold ([…]) to give 0.25, 0.063 and 0.016 mg/ml solutions. All the solutions were filtered with […] Nalgene syringe filter. Immediately after the bacterial inoculation, group 1 animals were subcutaneously (sc) injected with buffer (no test compound) and groups 2 to 5 were given test compound sc at 10.0, 2.5, 0.63, and 0.16 mg/kg, respectively. Group 6 animals received test compound sc at 10 mg/kg (or the highest therapeutic dose of a given compound) only for monitoring acute toxicity. These injections were repeated once at 4 hours after the inoculation for the respective groups. The injection volume at each time was 10 ml per kilogram of body weight. The results of the in vivo efficacy test are summarized in Table II, which provides a representative example of the results obtained for Compound 70. The 50% effective dose (ED50) is calculated on the basis of the number of mice surviving 7 days after inoculation. The ED50 was determined for other compounds of this invention in a similar manner.

In the case of `CCCCCCCCCC(=O)NC(Cc1c[nH]c2ccccc12)C(=O)NC(CC(N)=O)C(=O)NC(CC(=O)O)C(=O)NC1C(=O)NCC(=O)NC(CCCNC(=O)C2Cc3c([nH]c4ccccc34)CN2)C(=O)NC(CC(=O)O)C(=O)NC(C)C(=O)NC(CC(=O)O)C(=O)NCC(=O)NC(CO)C(=O)NC(C(C)CC(=O)O)C(=O)NC(CC(=O)c2ccccc2N)C(=O)OC1C` (stereo not shown) [Compound 70], the “Survival (7 days)” value is reported as 5/5.
